ChEMBL document CHEMBL5523667, “Blood-stage antimalarial activity, favourable metabolic stability and in vivo toxicity of novel piperazine linked 7-chloroquinoline-triazole conjugates” (Eur J Med Chem, 2024)
The source made the active and inactive calls. The calls are words filed in the database; no cut-off is given here.

Assays:
[1] = Cytotoxicity against CHO cells assessed as reduction in cell viability by MTT assay; type: toxicity, cell-based; conditions: Chinese hamster (Cricetulus griseus)
[2] = Selectivity index, ratio of IC50 for cytotoxicity against CHO cells to IC50 for antimalarial activity against chloroquine-sensitive Plasmodium falciparum NF54; type: toxicity, cell-based; conditions: hamster, CHO cells versus Plasmodium falciparum NF54; read-out: Ratio IC50
Falcipain-3 = target: T1, Falcipain-3 (Plasmodium falciparum 3D7, UniProt Q8IIL0); assay: Binding affinity to N-terminal 6His-tagged recombinant Plasmodium falciparum FP3 expressed in Escherichia coli M15 assessed as dissociation constant incubated for 15 mins in presence of lysine reactive dye by microscale thermophoretic analysis
T1 sequence (Q8IIL0 whole entry): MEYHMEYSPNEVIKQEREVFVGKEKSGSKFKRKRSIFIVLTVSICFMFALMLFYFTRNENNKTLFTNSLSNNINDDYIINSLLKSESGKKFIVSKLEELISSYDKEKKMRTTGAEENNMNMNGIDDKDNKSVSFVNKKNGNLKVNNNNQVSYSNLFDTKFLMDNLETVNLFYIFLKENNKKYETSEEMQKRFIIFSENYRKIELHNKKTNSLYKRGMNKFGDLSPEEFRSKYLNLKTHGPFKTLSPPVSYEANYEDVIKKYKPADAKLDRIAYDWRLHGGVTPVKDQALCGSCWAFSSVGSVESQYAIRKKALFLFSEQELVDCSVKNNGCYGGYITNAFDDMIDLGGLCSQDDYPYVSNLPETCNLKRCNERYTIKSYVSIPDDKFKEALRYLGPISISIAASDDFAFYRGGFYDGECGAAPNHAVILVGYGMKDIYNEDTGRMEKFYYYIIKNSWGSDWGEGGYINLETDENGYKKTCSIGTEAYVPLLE

[3] = target: T2, Falcipain 2 (Plasmodium falciparum) (UniProt Q9N6S8); assay: Binding affinity to N-terminal 6His-tagged recombinant Plasmodium falciparum FP2 expressed in Escherichia coli M15 assessed as association rate constant (Kon) by surface plasmon resonance analysis
T2 sequence (whole entry): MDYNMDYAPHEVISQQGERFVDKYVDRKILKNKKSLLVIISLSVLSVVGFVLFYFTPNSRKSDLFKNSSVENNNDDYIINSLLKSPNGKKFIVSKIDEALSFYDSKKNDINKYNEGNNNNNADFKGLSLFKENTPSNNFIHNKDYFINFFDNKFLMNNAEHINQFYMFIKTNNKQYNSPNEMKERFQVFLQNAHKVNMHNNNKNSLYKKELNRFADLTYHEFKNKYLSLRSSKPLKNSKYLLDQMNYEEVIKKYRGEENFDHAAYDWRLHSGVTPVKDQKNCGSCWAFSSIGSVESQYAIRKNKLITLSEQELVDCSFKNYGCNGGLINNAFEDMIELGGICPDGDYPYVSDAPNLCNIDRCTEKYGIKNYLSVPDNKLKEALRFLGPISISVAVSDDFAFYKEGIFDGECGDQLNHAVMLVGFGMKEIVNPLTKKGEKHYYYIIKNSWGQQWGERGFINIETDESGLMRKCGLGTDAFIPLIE

[4] = target: T2, Falcipain 2 (Plasmodium falciparum); assay: Inhibition of N-terminal 6His-tagged recombinant Plasmodium falciparum FP2 expressed in Escherichia coli M15 using Z-Phe-Arg-AMC as substrate at 10 uM measured after 30 mins by microplate reader analysis relative to control
Plasmodium falciparum [5] = assay: Antimalarial activity against synchronized ring stage Plasmodium falciparum assessed as increase in undigested hemoglobin level at 1 to 4 uM incubated for 20 hrs by absorbance based analysis; type: functional, organism-based; conditions: dose 1-4 µM
Plasmodium falciparum [6] = assay: Antimalarial activity against synchronized ring stage Plasmodium falciparum assessed as accumulation of free heme at 1 to 4 uM incubated for 20 hrs by absorbance based analysis; type: functional, organism-based; conditions: dose 1-4 µM
Plasmodium falciparum [7] = assay: Antimalarial activity against synchronized ring stage Plasmodium falciparum assessed as reduction in hemozoin level at 1 to 4 uM incubated for 20 hrs by absorbance based analysis; type: functional, organism-based; conditions: dose 1-4 µM
Plasmodium falciparum [8] = assay: Antimalarial activity against synchronized-ring stage chloroquine-sensitive Plasmodium falciparum 3D7 assessed as growth progression defect from ring to schizont stage measured upto 60 hrs post-treatment by Giemsa staining based light microscopic analysis; type: functional, organism-based
Plasmodium falciparum [9] = assay: Antimalarial activity against synchronized-ring stage chloroquine-sensitive Plasmodium falciparum 3D7 assessed as reduction in parasitemia measured upto 60 hrs post-treatment by Giemsa staining based light microscopic analysis (reference value: 3.9 %); type: functional; design: scale not given: the % may be the effect or the level left
Plasmodium falciparum [10] = assay: Antimalarial activity against trophozoite stage chloroquine-sensitive Plasmodium falciparum 3D7 assessed as growth inhibition incubated with compound for 6 hrs and measured 72 hrs post invasion by SYBR Green dye based analysis; type: functional, organism-based
Plasmodium falciparum [11] = assay: Antimalarial activity against ring stage chloroquine-sensitive Plasmodium falciparum 3D7 assessed as growth inhibition incubated for 72 hrs by SYBR Green dye based analysis; type: functional, organism-based; conditions: 3D7, 72 h
Plasmodium falciparum [12] = assay: Synergistic antimalarial activity against chloroquine-sensitive Plasmodium falciparum 3D7 assessed as fractional inhibitory concentration incubated for 60 hrs in presence of chloroquine by SYBR Green staining based analysis; type: functional
Plasmodium berghei [13] = assay: (§1) Antimalarial activity against Plasmodium berghei ANKA infected in BALB/c mouse assessed as reduction in gametocyte development at 50 to 100 mg/kg, ip preadministered with phenylhydrazine for 3 days followed by compound administration and measured after 4 days by Giemsa staining based light microscopic analysis; type: functional, organism-based; conditions: dose 50-100 mg/kg, time 4.0 day
Plasmodium berghei [14] = assay: as §1, with “clearance of gametocytes” for “reduction in gametocyte development”, “ip p” for “ip”, “5” for “4”, “analysis relative to control” for “analysis”; type: functional, organism-based; conditions: dose 50-100 mg/kg, time 5.0 day
[15] = Stability of the compound in simulated intestinal fluid at pH 6.8 at 1 uM measured after 120 mins by LC-MS/MS analysis; type: ADME; conditions: simulated gi fluid, pH 6.8, 2 h
[16] = Toxicity in mouse assessed as total distance travelled at 200 mg/kg measured over 5 mins by open field arena test (reference value: 12.45 +/- 1.48 meter); type: organism-based; conditions: in vivo
[17] = Toxicity in mouse assessed as frequency of rearing activity at 100 mg/kg measured over 5 mins by open field arena test (reference value: 18.14 +/- 2.6 sec); type: organism-based; conditions: in vivo
[18] = Toxicity in mouse assessed as latency time to the central area at 200 mg/kg by open field test (reference value: 106.48 +/- 43.19 sec); type: organism-based; conditions: in vivo, 43 s
[19] = Toxicity in mouse assessed as grooming time at 200 mg/kg by open field test (reference value: 10.91 +/- 2.01 sec); type: organism-based; conditions: in vivo, 2 s
[20] = Toxicity in mouse assessed as latency to fall off the rotating rod by measuring neuromuscular coordination index at 200 mg/kg by rotarod apparatus (reference value: 12.45 +/- 1.48 ); type: organism-based; conditions: in vivo
[21] = Toxicity against mouse assessed as effect on complete blood count at 100 to 200 mg/kg measured after 7 days by automated hematology analyzer; type: organism-based; conditions: in vivo, 168 h, dose 100-200 mg/kg, time 7 day
Plasmodium berghei [22] = assay: Antimalarial activity against Plasmodium berghei ANKA infected in female BALB/c mouse assessed as reduction in parasitemia at 50 to 100 mg/kg, ip administered daily for 7 days by Giemsa staining based light microscopy; type: functional, organism-based; conditions: dose 50-100 mg/kg, time 7.0 day
[23] = Toxicity in mouse assessed as cell apoptosis in kidney at 100 to 200 mg/kg measured after 7 days by hematoxylin and eosin staining based analysis; type: organism-based; conditions: in vivo, 168 h, dose 100-200 mg/kg, time 7 day

## O=C(Cn1cc(CN2CCN(c3ccnc4cc(Cl)ccc34)CC2)nn1)Nc1cccc([N+](=O)[O-])c1
[1]
  IC50: 148 µM
[2]
  selectivity ratio: 160
Falcipain-3
  Kd: 54.4 µM
[3]
  K: 680 M⁻¹ s⁻¹
[4]
  inhibition: 54.3%
Plasmodium falciparum [5]
  Activity: Active
Plasmodium falciparum [6]
  Activity: Active
Plasmodium falciparum [7]
  Activity: Active
Plasmodium falciparum [8]
  Activity: Active
Plasmodium falciparum [9]
  Activity: 1.03%
Plasmodium falciparum [10]
  IC50: 1.96 µM
Plasmodium falciparum [11]
  IC50: 0.96 µM
Plasmodium falciparum [12]
  fractional inhibitory concentration index (FICI): 0.5
Plasmodium berghei [13]
  Activity: Active
Plasmodium berghei [14]
  Activity: Active
[15]
  Stability: Stable
[16]
  Activity: 10.75 m
[17]
  Activity: 14.17 s
[18]
  Time: 54.39 s
[19]
  Time: 14.31 s
[20]
  Activity_index: 10.75
[21]
  Activity: Non-Toxic
Plasmodium berghei [22]
  Activity: Active
[23]
  Activity: Non-Toxic
